These results are taken from the OligoGym collection.

One data set addresses ANGPTL2. The settings on record: ASO.
The next data set addresses MYH7. The settings on record: ASO, CC-2580, 5 µM.

“And” between values parts separate entries of the source, which are not always exact repeats. Equal entries are not always repeated. After the bases stand the sugars from the 5' end (letter, count) and the backbone: PS all phosphorothioate, else s phosphorothioate and o phosphodiester by linkage. Methylation of C is not given here. l = locked nucleic acid (LNA); d = 2'-deoxy (DNA)

Consider “ACAAGCCAGTTGTATGT (sugars l1 d12 l4, PS)”, for which the target mRNA inhibition was 58.2% with ANGPTL2 (5 µM) and 72.3% with ANGPTL2 (25 µM).

For the sequence “ACACCCAAGACTCAGAT (sugars l4 d11 l2, PS)”, the target mRNA inhibition in the data set with ANGPTL2 (5 µM) came to 6.49%; with ANGPTL2 (25 µM) it was 5.75%.

In the case of “ACAGGGAAAGAATTTGGGTC (sugars l1 d16 l3, PS)”, the target mRNA inhibition with ANGPTL2 (5 µM) was found to be 44.4%; with ANGPTL2 (25 µM), 37.5%.

On to “AGCTCATTGTTGAGCAG (sugars l1 d13 l3, PS)”, for which the target mRNA inhibition with ANGPTL2 (5 µM) came out at 4.81%; with ANGPTL2 (25 µM) it was 13.2%.

For the sequence “AGGCCAACACTAACTCG (sugars l2 d13 l2, PS)”, the target mRNA inhibition in the data set with ANGPTL2 (5 µM) was 70.5%; with ANGPTL2 (25 µM), 78.8%.

Turning to “AGGGGCTATGACTATCC (sugars l1 d14 l2, PS)”, the results for the target mRNA inhibition with ANGPTL2 (5 µM) and with ANGPTL2 (25 µM) were 41.3% and 45.9%, respectively.

In the case of “AGTTCTGTTTGATCTTC (sugars l2 d11 l4, PS)”, the target mRNA inhibition amounted to 52.7% with ANGPTL2 (5 µM) and 69.2% with ANGPTL2 (25 µM).

On to “AGTTGATAGTTTATCTCC (sugars l2 d14 l2, PS)”, for which the target mRNA inhibition was determined as 51.7% with ANGPTL2 (5 µM) and 64.9% with ANGPTL2 (25 µM).

With “CAGCTCATTGTTGAGCA (sugars l2 d13 l2, PS)”, in the data set with ANGPTL2 (5 µM), the target mRNA inhibition is 0.32%.

As to “CAGCTTGGCGATGATCT (sugars l1 d9 l4 d1 l2, PS)”, in the data set with MYH7, the target mRNA inhibition is -1% and -10%.

On to “CAGCTTGGCGATGATCT (sugars l2 d7 l1 d4 l3, PS)”, for which the target mRNA inhibition with MYH7 is 18% and -5%.

For the sequence “CAGCTTGGCGATGATCT (sugars l2 d11 l4, PS)”, the target mRNA inhibition in the data set with MYH7 is 65% and 45%.

Take “CAGCTTGGCGATGATCT (sugars l2 d12 l3, PS)”: in the data set with MYH7, the target mRNA inhibition was 67% and 45%.

Consider “CAGCTTGGCGATGATCT (sugars lddlddddddddlldll, PS)”, for which the target mRNA inhibition with MYH7 was 29% and 5%.

For “CAGCTTGGCGATGATCT (sugars lddlddddddlddddll, PS)”, the target mRNA inhibition with MYH7 was 21% and 4%.

Take “CAGCTTGGCGATGATCT (sugars lddlddldddddlddll, PS)”: the target mRNA inhibition with MYH7 was 40% and 20%.

Consider “CAGCTTGGCGATGATCT (sugars lddlldddddldlddll, PS)”, for which the target mRNA inhibition in the data set with MYH7 was 8% and -2%.

“CAGCTTGGCGATGATCT (sugars lddlldddddlldddll, PS)”: the target mRNA inhibition in the data set with MYH7 was 15% and 12%.

“CAGCTTGGCGATGATCT (sugars lddllddddldddddll, PS)”: the target mRNA inhibition with MYH7 is 23% and 2%.

On to “CAGCTTGGCGATGATCT (sugars lddlllddlddddddll, PS)”, for which the target mRNA inhibition with MYH7 is 12% and 3%.

Turning to “CAGCTTGGCGATGATCT (sugars ldldddddddlddllll, PS)”, in the data set with MYH7, the target mRNA inhibition was 40% and 31%.

On to “CAGCTTGGCGATGATCT (sugars ldldldddddddldlll, PS)”, for which the target mRNA inhibition in the data set with MYH7 is 9% and 2%.

Consider “CAGCTTGGCGATGATCT (sugars ldldlddddddlddlll, PS)”, for which, in the data set with MYH7, the target mRNA inhibition was 38% and 29%.

Turning to “CAGCTTGGCGATGATCT (sugars ldldlddldddddddll, PS)”, the target mRNA inhibition with MYH7 is 28% and 3%.

For “CAGCTTGGCGATGATCT (sugars ldldldldddddddlll, PS)”, the target mRNA inhibition with MYH7 is 37% and 14%.

With “CAGCTTGGCGATGATCT (sugars lldddddddlddlddll, PS)”, the target mRNA inhibition with MYH7 was 19% and 5%.

On to “CAGCTTGGCGATGATCT (sugars lldddddddlddlldll, PS)”, for which, in the data set with MYH7, the target mRNA inhibition was 30% and 25%.

As to “CAGCTTGGCGATGATCT (sugars lldddddddldldldll, PS)”, in the data set with MYH7, the target mRNA inhibition is 1% and -1%.

In the case of “CAGCTTGGCGATGATCT (sugars llddddddldddlddll, PS)”, in the data set with MYH7, the target mRNA inhibition is 17% and -2%.

Take “CAGCTTGGCGATGATCT (sugars llddddddlddldldll, PS)”: the target mRNA inhibition with MYH7 was 2% and 0%.

In the case of “CAGCTTGGCGATGATCT (sugars llddddlddddldldll, PS)”, the target mRNA inhibition with MYH7 is 15% and 5%.

In the case of “CAGCTTGGCGATGATCT (sugars lldddldddddddldll, PS)”, in the data set with MYH7, the target mRNA inhibition is 28% and 4%.

Consider “CAGCTTGGCGATGATCT (sugars lldlddddddldlddll, PS)”, for which the target mRNA inhibition with MYH7 is 4% and -20%.

For “CAGCTTGGCGATGATCT (sugars lldlddddlddddddll, PS)”, in the data set with MYH7, the target mRNA inhibition is 23% and -1%.

As to “CAGCTTGGCGATGATCT (sugars lldldldddldddddll, PS)”, in the data set with MYH7, the target mRNA inhibition was -1% and -7%.

Consider “CAGCTTGGCGATGATCT (sugars lldlldlddldddddll, PS)”, for which, in the data set with MYH7, the target mRNA inhibition is -6% and 1%.

“CAGGTGCTGGTACTTGTG (sugars l1 d15 l2, PS)”: the target mRNA inhibition with ANGPTL2 (5 µM) came out at 40.4%; in the data set with ANGPTL2 (25 µM), 54.2%.

On to CCAGCCGCAGCTTATA (sugars l1 d13 l2, PS), for which the values for the target mRNA inhibition with ANGPTL2 (5 µM) and with ANGPTL2 (25 µM) were 21.8% and 35.3%, respectively.

Take “CCAGGCAGTTTCTTATG (sugars l1 d13 l3, PS)”: the target mRNA inhibition with ANGPTL2 (5 µM) came out at 16.4%; in the data set with ANGPTL2 (25 µM), 25.8%.

With “CCTTTTCACTCTCAATAT (sugars l3 d13 l2, PS)”, the target mRNA inhibition stood at 36.8% with ANGPTL2 (5 µM) and 43.5% with ANGPTL2 (25 µM).

For “CGGTTGTAGGTGGGTGG (sugars l1 d14 l2, PS)”, the target mRNA inhibition in the data set with ANGPTL2 (5 µM) is 21.1%; with ANGPTL2 (25 µM) it was -3.3%.

Consider “CTATCCTCTCCCAAACATG (sugars l1 d16 l2, PS)”, for which the target mRNA inhibition worked out at 16% in the data set with ANGPTL2 (5 µM) and 24.1% with ANGPTL2 (25 µM).

For the sequence CTCCGGTAATGGCCC (sugars l1 d12 l2, PS), the target mRNA inhibition with ANGPTL2 (5 µM) is -5%; with ANGPTL2 (25 µM), 15.6%.

In the case of “CTTGGCAATGATCTCATCC (sugars l2 d5 l1 d7 l4, PS)”, the target mRNA inhibition with MYH7 was 69% and 45%.

“CTTGGCAATGATCTCATCC (sugars l4 d12 l3, PS)”: the target mRNA inhibition with MYH7 was 73% and 58%.

Turning to “CTTGGCAATGATCTCATCC (sugars ldddddddddldlddddll, PS)”, the target mRNA inhibition in the data set with MYH7 is 45% and 22%.

“CTTGGCAATGATCTCATCC (sugars ldddddddldllddlddll, PS)”: the target mRNA inhibition in the data set with MYH7 was 43% and 24%.

As to “CTTGGCAATGATCTCATCC (sugars lddddddlddllddlddll, PS)”, in the data set with MYH7, the target mRNA inhibition was 34% and 17%.

Regarding “CTTGGCAATGATCTCATCC (sugars ldddddldddldlddldll, PS)”, the target mRNA inhibition in the data set with MYH7 was 31% and 22%.

For the sequence “CTTGGCAATGATCTCATCC (sugars ldddddlldlddlddddll, PS)”, the target mRNA inhibition with MYH7 is 30% and 22%.

Take “CTTGGCAATGATCTCATCC (sugars lddlddddddllddlddll, PS)”: the target mRNA inhibition in the data set with MYH7 is 7% and -2%.

As for “CTTGGCAATGATCTCATCC (sugars ldlddddddldlddlddll, PS)”, in the data set with MYH7, the target mRNA inhibition was 48% and 33%.

On to “CTTGGCAATGATCTCATCC (sugars lldddddddddldlddlll, PS)”, for which the target mRNA inhibition with MYH7 is 52% and 34%.

For the sequence “CTTGGCAATGATCTCATCC (sugars llddddddldllddlddll, PS)”, in the data set with MYH7, the target mRNA inhibition was 34% and 10%.

Take “CTTGGCAATGATCTCATCC (sugars llddldddddddlldldll, PS)”: the target mRNA inhibition with MYH7 was -3% and -10%.

In the case of “CTTGGCAATGATCTCATCC (sugars llldddddddllddlddll, PS)”, the target mRNA inhibition with MYH7 is 71% and 62%.

For the sequence “GAACCATTTTGAGATTCC (sugars l3 d13 l2, PS)”, the target mRNA inhibition is 56.6% with ANGPTL2 (5 µM) and 52% in the data set with ANGPTL2 (25 µM).

Regarding “GAACCATTTTGAGATTCCC (sugars l1 d16 l2, PS)”, the target mRNA inhibition with ANGPTL2 (5 µM) is 27.6%; with ANGPTL2 (25 µM), 7.84%.

As for GAGCCTTTACATGCCG (sugars l2 d12 l2, PS), the target mRNA inhibition worked out at 41% with ANGPTL2 (5 µM) and 66.8% with ANGPTL2 (25 µM).

“GAGTTGAAGGGAGGTGC (sugars l1 d14 l2, PS)”: the target mRNA inhibition with ANGPTL2 (5 µM) is 17.7%; with ANGPTL2 (25 µM), -10.3%.

With “GCAAAGGTCAGAAACATC (sugars l3 d12 l3, PS)”, the target mRNA inhibition came to 28.8% in the data set with ANGPTL2 (5 µM) and 37.7% with ANGPTL2 (25 µM).

In the case of “GCTGGAAAGAGGGATAGA (sugars l2 d14 l2, PS)”, the target mRNA inhibition with ANGPTL2 (5 µM) came out at 60.7%; with ANGPTL2 (25 µM), 66.2%.

Take “TAGTGGGCACAGTTTCC (sugars l1 d14 l2, PS)”: the values for the target mRNA inhibition with ANGPTL2 (5 µM) and with ANGPTL2 (25 µM) were 21.2% and 36.4%, respectively.

With “TCAGCTTGGCGATGATCT (sugars l2 d7 l1 d4 l4, PS)”, in the data set with MYH7, the target mRNA inhibition is 36% and 34%.

“TCAGCTTGGCGATGATCT (sugars l3 d11 l4, PS)”: the target mRNA inhibition in the data set with MYH7 is 68% and 52%.

As to “TCAGCTTGGCGATGATCT (sugars lddldddddddlddldll, PS)”, the target mRNA inhibition in the data set with MYH7 was found to be 21%.

On to “TCCAGGGTGGTGAACTG (sugars l2 d13 l2, PS)”, for which the target mRNA inhibition with ANGPTL2 (5 µM) is 25.1%; with ANGPTL2 (25 µM), 23.2%.

Take “TGAAGGAAAGTAGGAGGGA (sugars l1 d15 l3, PS)”: the target mRNA inhibition is 10.6% in the data set with ANGPTL2 (5 µM) and 16.5% with ANGPTL2 (25 µM).

Turning to TGATGCGGTTGTAGGT (sugars l2 d12 l2, PS), in the data set with ANGPTL2 (5 µM), the target mRNA inhibition was 73.2%.

On to “TGCTGGGGCACAATGAA (sugars l2 d12 l3, PS)”, for which the target mRNA inhibition in the data set with ANGPTL2 (5 µM) turned out to be 28.2%; with ANGPTL2 (25 µM), 2.72%.

In the case of “TGGGCATAGTGGGCAGA (sugars l1 d14 l2, PS)”, the target mRNA inhibition in the data set with ANGPTL2 (5 µM) is 58.9%; in the data set with ANGPTL2 (25 µM) it was 64%.

“TGGTTGATGATGCGGTTG (sugars l2 d14 l2, PS)”: the target mRNA inhibition with ANGPTL2 (5 µM) is 77.6%; in the data set with ANGPTL2 (25 µM) it was 86.1%.

With TGTAGGTGCACTTGTC (sugars l2 d12 l2, PS), the target mRNA inhibition came to 28.5% with ANGPTL2 (5 µM) and 49.4% with ANGPTL2 (25 µM).

Regarding “TTAACAGAGCCATCCAGG (sugars l1 d15 l2, PS)”, the results for the target mRNA inhibition with ANGPTL2 (5 µM) and in the data set with ANGPTL2 (25 µM) were 24.9% and 25.4%, respectively.

“TTGAGATTCCCCCAAAG (sugars l2 d11 l4, PS)”: the figures for the target mRNA inhibition in the data set with ANGPTL2 (5 µM) and in the data set with ANGPTL2 (25 µM) were 28.3% and 41.2%, respectively.

Take “TTGATGATGCGGTTGTAGG (sugars l2 d15 l2, PS)”: the target mRNA inhibition with ANGPTL2 (5 µM) was 55.3%; with ANGPTL2 (25 µM) it was 67.3%.

Regarding “TTGATGATGCGGTTGTAGGT (sugars l1 d17 l2, PS)”, the target mRNA inhibition is 41.3% with ANGPTL2 (5 µM) and 48.7% in the data set with ANGPTL2 (25 µM).

Take “TTGGACAACTAGGCAGCA (sugars l3 d13 l2, PS)”: the target mRNA inhibition was 38.8% with ANGPTL2 (5 µM) and 60.3% with ANGPTL2 (25 µM).
